Assays:
[1] = Dynamic vapor sorption (DVS) with XRPD before and after; format: physicochemical
Method: (§1) Test conditions for the instruments used in experiments of the present disclosure: • 1. X-ray Powder Diffraction, XRPD • Instrument type: Malver Panalytical Aeris X-ray powder diffractometer • Ray: monochromatic Cu—Kα ray (λ=1.54188) • Scanning mode: θ/2θ, Scanning range (2θ range): 3.5-50° • Voltage: 40 kV, Electric current: 15 mA • 2. Differential Scanning calorimetry, DSC • Instrument type: TA DSC250 • Purge gas: Nitrogen; Nitrogen purge rate: 50 mL/min • Heating rate: 10° C./min • Temperature range: 25° C.-250° C. • 3. Thermogravimetric Analysis, TGA • Instrument type: TA TGA550 • Purge gas: Nitrogen; Nitrogen purge rate: 20 ml/min • Scanning rate: 10° C./min • Temperature range: 30° C.-350° C. • 4. Dynamic vapor sorption (DVS) • Using SMS Intrinsic PLUS, the detection is performed at 25° C., with humidity change of 50%-0%-90% with a step size of 10%, in which the criteria for judging is that the mass change dM/dT for each gradient is less than 0.002%, TMAX is 360 min, and two cycles are performed. • 5. High performance liquid chromatography (HPLC) described in the stability test of the crystal form A of the present disclosure is determined on Agilent 1260 Infinity II.
During the humidity change of 0%-90% RH, the desorption process of the sample coincides with the adsorption process thereof.

[2] = Stability test (influence factor tests: light, temperature, humidity) by HPLC and XRPD; format: physicochemical
Method: as §1
(§2) In the content detection method by the high performance liquid chromatography described in the present disclosure, HPLC conditions are as follows: chromatographic column, Agilent Eclipse Plus C18 4.6 mm*150 mm, 3.5 μm; mobile phase, A-10 mmol/L solution of sodium dihydrogen phosphate (pH 8.0), and B-ACN; flow rate, 1.0 ml/min; wavelength, 210 nm.
as §2, with “related substances” for “content”, “ammonium acetate,” for “sodium dihydrogen phosphate (pH 8.0),”
It is determined whether light, temperature and humidity have an influence on the stability of crystal form A of hydrochloride salt of the compound of formula I. The crystal form A of hydrochloride salt was placed in a stabilizing chamber in the dark and subjected to influence factor tests using a series of temperature and humidity combinations. After being placed for different days under light and various temperature and humidity conditions, the samples were taken out and compared with the initial crystal form A of hydrochloride salt. […] The samples taken out on the last day under light and various temperature and humidity conditions were subjected to XRPD detection, showing that the crystal form A of hydrochloride salt had no change and had good stability.

Cl.N#Cc1ccc2c(c1)COc1cc(C[C@@H](C#N)NC(=O)[C@@H]3CNCCCO3)c(F)cc1-2 [Crystal form A of hydrochloride salt]
weight gain by hygroscopicity ([1]; DVS, 25° C., 80% RH): approximately 1.1% | crystal form before and after DVS detection (XRPD) ([1]; humidity change 0%-90% RH): the crystal form did not change | Content % ([2]; 25° C. 92% - one week): 99.37% | Isomers % ([2]; 25° C. 92% - one week): 0.63% | Content % ([2]; 25° C. 92% - two weeks): 99.31% | Isomers % ([2]; 25° C. 92% - two weeks): 0.70% | Content % ([2]; 40° C. 75% - one week): 99.31% | Isomers % ([2]; 40° C. 75% - one week): 0.69% | Content % ([2]; 40° C. 75% - two weeks): 99.32% | Isomers % ([2]; 40° C. 75% - two weeks): 0.68% | Content % ([2]; 60° C. - one week): 99.31% | Isomers % ([2]; 60° C. - one week): 0.70% | Content % ([2]; 60° C. - two weeks): 99.33% | Isomers % ([2]; 60° C. - two weeks): 0.67% | increase in isomers of the compound of formula I versus initial (HPLC) ([2]; different days under light and various temperature and humidity conditions): none of them had a significant increase | Content % ([2]; initial): 99.54% | Isomers % ([2]; initial): 0.67% | Content % ([2]; light, 0.5 ICH): 99.44% | Isomers % ([2]; light, 0.5 ICH): 0.67% | Content % ([2]; light, 1 ICH): 99.32% | Isomers % ([2]; light, 1 ICH): 0.67% | crystal form by XRPD after influence factor tests ([2]; samples of the last day under light and various temperature and humidity conditions): had no change

Source: patent US20250361226A1, “PHARMACEUTICALLY ACCEPTABLE SALT OF BENZO[C]CHROMAN COMPOUND AND P[…] AND USE OF PHARMACEUTICALLY ACCEPTABLE SALT” (REISTONE BIOPHARMA COMPANY LIMITED, priority 2022, published 2025)
